Legend:
[1] = target: T1, L-sorbosone dehydrogenase, purified from cytosol fraction of Gluconobacter oxydans UV-10 (FERM BP-1267) (Gluconobacter oxydans, UniProt Q47943); assay: biochemical; details: pH 7, read-out: Relative Activity (%) in presence of substance
T1 sequence (Q47943 1-498): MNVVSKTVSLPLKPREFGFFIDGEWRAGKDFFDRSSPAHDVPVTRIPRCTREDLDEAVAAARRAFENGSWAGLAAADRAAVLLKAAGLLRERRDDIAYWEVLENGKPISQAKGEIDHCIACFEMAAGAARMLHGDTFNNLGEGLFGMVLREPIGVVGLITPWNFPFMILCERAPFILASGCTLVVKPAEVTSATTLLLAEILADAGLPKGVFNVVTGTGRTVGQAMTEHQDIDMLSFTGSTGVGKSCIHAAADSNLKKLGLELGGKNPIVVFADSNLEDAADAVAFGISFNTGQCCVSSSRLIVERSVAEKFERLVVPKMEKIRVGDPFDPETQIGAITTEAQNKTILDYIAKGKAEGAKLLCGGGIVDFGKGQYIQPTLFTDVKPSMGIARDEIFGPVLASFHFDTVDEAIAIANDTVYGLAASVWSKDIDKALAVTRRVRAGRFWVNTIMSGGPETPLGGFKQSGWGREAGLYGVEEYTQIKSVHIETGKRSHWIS

[2] = target: T1, L-sorbosone dehydrogenase, purified from cytosol fraction of Gluconobacter oxydans UV-10 (FERM BP-1267)

Work on `O[C@H](CS)[C@H](O)CS` (racemic) [Dithiothreitol] yielded an activity at 5000 µM [1] of 119%.
In the case of `O=C(O)CI` [ICH2 COONa], the activity at 5000 µM [1] was 57.7%.
In the case of `CCN1C(=O)C=CC1=O` [N--Ethylmaleimide, N-Ethylmaleimide], the “Effect on enzyme activity (in words)” value ([2]; summary of Table 8) was “inhibited the enzyme activity strongly” and the activity at 1000 µM [1] was 0%.
`[N-]=[N+]=[N-].[Na+]` [NaN3] was tested, and the “Relative Activity (%) in presence of substance” value ([2]; substance conc. 5 mM, None = 100, pH 7.0, 30° C.) was 100%.
